A compilation of properties of binary mixtures (doi:10.1021/je060123k)

Experiment: xn = mol fraction of the nth substance listed
Conditions: 101 kPa

CCCO + CCCCCCCCn1cc[n+](C)c1.[Cl-]
x1 = 1
Conditions | speed of sound [m/s] | viscosity [mPa·s]
298.15 K | 1205 | 1.951
313.15 K | 1155 | 1.383
328.15 K | 1105 | 1.007

CCO + CCCCCCCCn1cc[n+](C)c1.[Cl-]
x1 = 1
Conditions | speed of sound [m/s] | viscosity [mPa·s]
298.15 K | 1143 | 1.085
313.15 K | 1093 | 0.826
328.15 K | 1043 | 0.641

CO + CCCCCCCCn1cc[n+](C)c1.[Cl-]
x1 = 1
Conditions | speed of sound [m/s] | viscosity [mPa·s]
298.15 K | 1103 | 0.543
328.15 K | 1008 | 0.369

CCCCCCCCn1cc[n+](C)c1.[Cl-] + CCCO
Conditions | speed of sound, 298.15 K [m/s] | speed of sound, 313.15 K [m/s] | speed of sound, 328.15 K [m/s] | viscosity, 298.15 K [mPa·s] | viscosity, 313.15 K [mPa·s] | viscosity, 328.15 K [mPa·s]
x2 = 0 | – | 1624 | – | – | 4100 | –
x2 = 0.1071 | 1659 | 1584 | – | 7200 | 1720 | –
x2 = 0.2407 | 1593 | 1539 | – | 2056 | 650 | –
x2 = 0.3036 | 1566 | 1517 | – | 910 | 334 | –
x2 = 0.407 | 1531 | – | 1445 | 386 | – | 77.4
x2 = 0.4887 | 1504 | 1461 | 1421 | 179 | 84.1 | 42.7
x2 = 0.6209 | 1456 | 1414 | – | 50.81 | 28.81 | –
x2 = 0.7248 | – | 1369 | – | – | 12.22 | –
x2 = 0.8516 | 1342 | 1296 | 1250 | 6.34 | 4.4 | 3.189
x2 = 0.9024 | – | 1257 | 1211 | – | 3.23 | 2.352
x2 = 0.94 | 1271 | 1223 | – | 3.238 | 2.293 | –
x2 = 0.9729 | 1238 | 1188 | – | 2.648 | 1.878 | –

CCCCCCCCn1cc[n+](C)c1.[Cl-] + CCO
Conditions | speed of sound, 298.15 K [m/s] | speed of sound, 313.15 K [m/s] | speed of sound, 328.15 K [m/s] | viscosity, 298.15 K [mPa·s] | viscosity, 313.15 K [mPa·s] | viscosity, 328.15 K [mPa·s]
x2 = 0 | 1721 | 1624 | 1560 | 21000 | 4100 | 1091
x2 = 0.0449 | – | 1606 | – | – | 2717 | –
x2 = 0.1305 | – | 1578 | 1527 | – | 1411 | 481
x2 = 0.2969 | 1579 | 1530 | 1487 | 1127 | 394 | 165
x2 = 0.4753 | 1518 | 1477 | 1438 | 186 | 88 | 45.2
x2 = 0.6858 | 1437 | – | – | 21.26 | – | –
x2 = 0.8809 | 1304 | 1258 | – | 3.5 | 2.601 | –
x2 = 0.917 | 1264 | 1218 | 1175 | 2.551 | 1.919 | 1.488
x2 = 0.955 | 1215 | 1169 | 1122 | 1.754 | 1.341 | 1.038
x2 = 0.9794 | 1179 | – | – | 1.396 | – | –

CCCCCCCCn1cc[n+](C)c1.[Cl-] + CO
Conditions | speed of sound, 298.15 K [m/s] | speed of sound, 313.15 K [m/s] | speed of sound, 328.15 K [m/s] | viscosity, 298.15 K [mPa·s] | viscosity, 313.15 K [mPa·s] | viscosity, 328.15 K [mPa·s]
x1 = 0.0197 | – | 1110 | 1070 | – | 0.594 | 0.497
x2 = 0 | 1721 | 1624 | 1560 | 21000 | 4100 | 1091
x2 = 0.0565 | 1683 | 1602 | 1548 | 10400 | 2450 | 760
x2 = 0.1686 | 1638 | 1578 | 1531 | 3500 | 1002 | 365
x2 = 0.2638 | 1608 | 1558 | 1514 | 1489 | 500 | 205
x2 = 0.3525 | – | 1536 | 1496 | – | 212 | 99
x2 = 0.4395 | – | 1518 | – | – | 106.7 | –
x2 = 0.5589 | – | – | 1447 | – | – | 21.44
x2 = 0.7536 | 1447 | 1406 | 1365 | 8.43 | 5.82 | 4.39
x2 = 0.8231 | 1397 | – | – | 4.19 | – | –
x2 = 0.8713 | – | 1304 | 1263 | – | 1.854 | 1.491
x2 = 0.8813 | – | 1292 | 1250 | – | 1.722 | 1.388
x2 = 0.9236 | 1274 | 1229 | 1186 | 1.416 | 1.133 | 0.93
x2 = 0.9436 | 1237 | 1192 | 1147 | 1.135 | 0.914 | 0.754
